Our source for the TGI and GI50 values is PubChem BioAssay (NCI).

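Growth conditions: 96-well plates. Treatment: test compound, 48 hours, 5 concentrations. Analysis: linear interpolation between bracketing concentrations; unreached endpoints set to highest concentration. Here, GI50 denotes the concentration required for 50% inhibition of growth. Definition used: TGI = concentration required for complete inhibition of growth.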 Where a SMILES comes first, the peptide text is derived from it. The star is where a group is joined. Boc = CC(C)(C)OC(=O)*

Assay in all cases: inhibition of tumour cell growth, NCI panel, 48 h
The subject of assay [1] is HCT-116 colon.
Assay [2] deals with HOP-92 NSCLC.
For assay [3], the system named is HS 578T breast.
Assay [4] concerns MCF7 breast.
Assay [5] relates to OVCAR-4 ovarian.
For assay [6], the system named is OVCAR-8 ovarian.
For assay [7], the system named is SNB-19 CNS.
The subject of assay [8] is TK-10 renal.
Assay [9] deals with U251 CNS.
The subject of assay [10] is UO-31 renal.

Take `COc1ccc2cc3c4cc5c(cc4cc[n+]3cc2c1OC)OCO5`: the TGI was > 100 µM in assay [1]; > 90.4 µM in assay [2]; 31.3 µM in assay [3]; > 96.2 µM in [4]; > 100 µM in assay [5]; > 94.8 µM in assay [6]. Also, the TGI in assay [7] is 39.6 µM; in assay [8] it was 83.2 µM; in assay [9] it was 15.3 µM; in [10], > 100 µM.

On to `C=CCOC(=O)CC[N+]1=CCC(c2ccccc2)(c2ccccc2)O1`, for which the TGI in assay [1], in assay [2], in [3], in [4], in assay [5] and in assay [6] was > 100 µM in each case. Further, the TGI in [7], in assay [8], in assay [9] and in assay [10] was > 100 µM in each case.

Regarding `O=C(CNc1ccccc1Cl)Nn1c(-c2ccccc2)nc2ccccc2c1=O`, the TGI in assay [1] was > 100 µM; in [2] it was 29.4 µM; in assay [3] it was 89.5 µM; in assay [4], 31.4 µM; in assay [5], 93.4 µM; in [6], > 100 µM. Moreover, the TGI was > 10 µM in [7], > 100 µM in [8], 33 µM in assay [9] and > 100 µM in assay [10].

As to `O=c1cc(N=P(c2ccccc2)(c2ccccc2)c2ccccc2)n(-c2ccccc2)c(=O)n1-c1ccccc1`, the TGI is 42.5 µM in [1]; 47.5 µM in assay [2]; 58 µM in [3]; 34.3 µM in assay [4]; 45.9 µM in [5]; > 100 µM in assay [6]. Moreover, the TGI in assay [7] was 63.5 µM; in assay [8], > 100 µM; in assay [9], 29.2 µM; in assay [10] it was 34.6 µM.

On to `CC(C)(C)OC(=O)NCC(=O)NCC(=O)NCC(=O)NCC(=O)O` (Boc-GGGG-OH), for which the TGI in assay [1], in assay [2], in [3], in assay [4], in assay [5] and in assay [6] was > 100 µM each time. Besides, the TGI in [7], in [8], in [9] and in assay [10] was > 100 µM in each case.

As for `COc1cc2c(cc1-c1c(C)noc1C)cc(C)c(=O)n2Cc1ccccn1`, the GI50 in [1] is 1.91 µM; in assay [2], 0.473 µM; in assay [3], 0.318 µM; in assay [4] it was 0.333 µM; in assay [5] it was 1.33 µM; in assay [7], 1.86 µM. Besides, the GI50 is 0.34 µM in [8], 4.43 µM in assay [9] and 0.376 µM in assay [10]. In addition, the TGI in assay [1] was > 100 µM; in assay [2] it was 25.3 µM; in assay [3], 13.3 µM; in assay [4] it was > 100 µM; in [5] it was > 100 µM; in assay [7] it was > 100 µM. Also, the figures for the TGI in assay [8], in assay [9] and in assay [10] were 18.3 µM, > 100 µM and > 100 µM, respectively.

In the case of `CN(C)C(=S)S`, the TGI in assay [1] was > 59.9 µM; in assay [2], > 100 µM; in [3], > 100 µM; in [4], > 100 µM; in assay [5] it was > 100 µM; in assay [6], > 100 µM. Also, the TGI in [7], in [8], in [9] and in [10] was > 100 µM throughout.

Turning to `O=C(c1cc2ccccc2cc1O)N1CCCCC1`, the TGI in assay [1] is > 100 µM; in [2], 43.3 µM; in assay [3], > 100 µM; in assay [4], > 100 µM; in assay [5], > 100 µM; in assay [6], > 100 µM. Moreover, the TGI in assay [7], in [8], in assay [9] and in [10] was > 100 µM in each case.

In the case of `Nc1c(-c2cccc3ccccc23)c2ccc([N+](=O)[O-])cc2c(=O)n1-c1nc2ccccc2s1`, the TGI in [1] was > 40.2 µM; in assay [2], > 55.5 µM; in [3] it was 20.9 µM; in assay [4], 7.84 µM; in assay [5], > 53.5 µM; in assay [6] it was 10.5 µM. For the same compound, the TGI was > 49.4 µM in [7], > 100 µM in assay [8], > 50.5 µM in [9] and > 100 µM in assay [10].

As for `Brc1cccc(Nc2nc(-c3cccs3)nc3ccc(Br)cc23)c1`, the TGI in assay [1], in assay [2], in [3], in assay [4], in assay [5] and in [6] was > 100 µM in each case. For the same compound, the TGI in [7] is 98.7 µM; in [8] it was 88 µM; in [9], > 100 µM; in assay [10] it was > 100 µM.

With `COc1cc(NS(C)(=O)=O)ccc1N1Cc2cnc3ccc4[nH]c(C)cc1c4c23`, the TGI in [1], in assay [2], in [3], in assay [4], in assay [5] and in [6] was > 100 µM in each case. Besides, the TGI is 32.7 µM in assay [7], > 100 µM in assay [8], > 100 µM in assay [9] and > 100 µM in assay [10].

In the case of `Clc1ccc(-c2nn3c(-c4ccncc4)nnc3s2)cc1`, the TGI in [1], in assay [2], in assay [3], in [4], in assay [5] and in assay [6] was > 100 µM each time. Besides, the TGI in [7] is > 100 µM; in [8] it was > 100 µM; in assay [9], 75 µM; in assay [10], > 100 µM.

As to `C/C(CC1C2CCCC1C2)=N\NC(N)=O` (stereo unspecified), the TGI in assay [1], in assay [2], in assay [3], in assay [4], in assay [5] and in assay [6] was > 100 µM each time. For the same compound, the TGI in assay [7], in assay [8], in [9] and in assay [10] was > 100 µM in each case.

With `CCN(CC)CCOc1ccc(N2C(=O)c3cc(OC)c(OC)cc3C2=O)cc1`, the TGI in [1], in assay [2], in [3], in assay [4], in [5] and in [6] was > 100 µM each time. Further, the TGI in assay [7], in [8] and in assay [9] was > 100 µM in each case.

For `CN(C)Cc1cc(C(=O)/C=C/c2ccc(O)cc2)cc(CN(C)C)c1O`, the TGI in assay [1], in [2], in assay [3], in assay [4], in assay [6] and in assay [7] was > 100 µM each time. In addition, the TGI in [8] was > 100 µM; in [9], 32.2 µM; in [10] it was > 100 µM.

For the compound `COC(=O)c1c2c(cc3c1CC1(C3)Cc3cc4c(c(C(=O)OC)c3C1)CCCC4)CCCC2`, the TGI in assay [1], in [2], in assay [3], in [4], in [5] and in assay [6] was > 100 µM each time. Further, the values for the TGI in assay [8], in assay [9] and in assay [10] were > 100 µM, > 100 µM and 1.23 µM, respectively.

In the case of `C=C[C@@H]1C(CO)=CCC2[C@H]1CCC1C(C)(C)C(=O)CC[C@]21C` (stereo partly specified), the TGI in assay [1], in assay [2], in assay [3], in assay [4], in [5] and in assay [7] was > 100 µM throughout. Besides, the TGI in assay [8], in assay [9] and in assay [10] was > 100 µM each time.

As to `O=c1c2cc3c(cc2[nH]c2ncccc12)OCO3`, the TGI in assay [1], in assay [2], in assay [3], in assay [4], in assay [5] and in [6] was > 10 µM in each case. Besides, the TGI in assay [7], in [8] and in assay [9] was > 10 µM each time.

With `CC1(C)N=C(C(N)=O)c2ncn(CCCO)c2N1`, the TGI in assay [1], in assay [2], in assay [3], in assay [4], in assay [5] and in assay [6] was > 100 µM each time. The TGI in assay [7], in [8] and in assay [9] was > 100 µM in each case.

Regarding `O=C(NCCCN(CCCCN(CCCNC(=O)C(F)(F)F)Cc1ccccc1)Cc1ccccc1)C(F)(F)F`, the TGI in [1] was 23.6 µM; in [2], 38.1 µM; in assay [3], 31.4 µM; in assay [4], 24.7 µM; in [5], 68.1 µM; in assay [6], 26.9 µM. Moreover, the TGI in assay [7] was found to be 26.6 µM; in assay [8], 53.5 µM; in assay [10], 17.4 µM.
